Test results taken from paper PMC11597774, “Investigation of Antimicrobial and Anti-Inflammatory Efficacy of Newly Synthesized Pyrogallol-Coumarin Hybrids: In Vitro and In Silico Studies” (Pharmaceutics, 2024).
≈ marks a conversion by molar mass, not a printed value. Where two headings read alike, the source gives them in different places.

Tests used:
B. subtilis (isolate) = assay: Microdilution MIC/MMC with resazurin; format: cell-based, Bacillus subtilis; settings: for MIC: Bacillus subtilis
Procedure: (§1) The antimicrobial activity of PCH-1 and PCH-2 was tested against 13 microorganisms. The experiment included four standard strains, Staphylococcus aureus ATCC 6538, Bacillus subtilis ATCC 6633, Proteus mirabilis ATCC 12453, and Pseudomonas aeruginosa ATCC 27853; five isolates, Staphylococcus aureus, Escherichia coli, Salmonella enterica, Klebsiella pneumoniae, and Bacillus subtilis; and one probiotic strain Lactobacillus plantarum 299V. Additionally, three fungal strains were tested, including one standard strain, Candida albicans ATCC 10231, and two isolates, Saccharomyces cerevisiae and probiotic strain Saccharomyces boulardii.
(§2) The bacterial suspensions were prepared using the direct colony method. The turbidity of the initial suspension was adjusted using a densitometer (DEN-1, BioSan, Latvia). When adjusted to the turbidity of the 0.5 McFarland standard, the bacterial suspension contains approximately 10^8 colony-forming units (CFU)/mL, and the yeast suspension contains approximately 10^6 CFU/mL. For the experiment, the initial suspension was further diluted at a 1:100 ratio in a sterile 0.85% saline solution.
(§3) The antimicrobial activity was assessed by determining the minimum inhibitory concentrations (MICs) and minimum microbicidal concentrations (MMCs) using the microdilution plate method with resazurin (Alfa Aesar GmbH & Co. (KG, Karlsruhe, Germany)). For this, 96-well plates were prepared by adding 100 μL of Mueller Hinton broth (Torlak, Belgrade, Serbia) for bacterial tests and Sabouraud broth (Torlak, Belgrade, Serbia) for yeast into each well. The tested PCH-1 and PCH-2 were dissolved in 10% dimethyl sulfoxide (DMSO) and then diluted into sterile distilled water. A 100 μL sample from the stock solution of the tested compound was then added to the first row of the plate, followed by twofold serial dilutions using a multichannel pipette. This produced a concentration range from 2.69 to 0.0025 µmol/L. The method is described in detail in the reported paper.
(§4) Each test setup included growth control and sterility control. […] Minimum microbicidal concentrations (MMCs) were determined as described in detail in the reported paper.

B. subtilis ATCC 6633 = assay: Microdilution MIC/MMC with resazurin; format: cell-based, Bacillus subtilis; settings: for MIC: Bacillus subtilis, ATCC6633
Procedure: as §1, §2, §3, §4

K. pneumoniae = assay: Microdilution MIC/MMC with resazurin; format: cell-based, Klebsiella pneumoniae; settings: for MIC: Klebsiella pneumoniae
Procedure: as §1, §2, §3, §4

P. mirabilis ATCC 12453 [1] = assay: Microdilution MIC/MMC with resazurin; format: cell-based, Proteus mirabilis; settings: for MIC: Proteus mirabilis, ATCC12453
Procedure: as §1, §2, §3, §4

P. aeruginosa ATCC 27853 = assay: Microdilution MIC/MMC with resazurin; format: cell-based, Pseudomonas aeruginosa; settings: for MIC: Pseudomonas aeruginosa, ATCC27853
Procedure: as §1, §2, §3, §4

C. albicans ATCC 10231 = assay: Microdilution MIC/MMC with resazurin; format: cell-based, Candida albicans; settings: for MIC: Candida albicans, ATCC10231
Procedure: as §1, §2, §3, §4

S. aureus ATCC 25923 = assay: Inhibition of biofilm formation (crystal violet); format: cell-based, Staphylococcus aureus; settings: for BIC90: S. aureus ATCC 25923, 48 h
P. mirabilis ATCC 12453 [2] = assay: Inhibition of biofilm formation (crystal violet); format: cell-based, Proteus mirabilis; settings: for BIC90: P. mirabilis ATCC 12453, 48 h; for IC50: Proteus mirabilis, ATCC12453, P. mirabilis ATCC 12453, 48 h, read-out: BIC50
Procedure: The ability of S. aureus ATCC 6538, P. mirabilis ATCC 12453, and P. aeruginosa ATCC 27853 to form biofilms was assayed as described by O’Toole et al. (2000), with some modifications. Briefly, tissue culture 96-well microtiter plates (Sarstedt, Germany) were prepared by dispensing 100 µL of nutrient broth (i.e., Mueller Hinton broth) into each well. Then, 10 µL of spore suspension (1.0 McFarland for Gram-positive bacteria and 0.5 McFarland for Gram-negative bacteria) was added to each row. To encourage biofilm formation, all plates were incubated at 37 °C for 48 h, after which the content of each well was emptied and washed twice with 200 µL of sterile 0.85% saline to remove non-adherent cells. The biofilms formed were fixed by adding 100 µL of methanol until it evaporated completely, then stained with 0.1% (w/v) crystal violet (Fluka AG, Buchs, Switzerland) and left at room temperature for 20 min. The excess stain was washed away with deionized water, followed by […] of 96% ethanol. The optical densities (ODs) of the stained biofilms were measured with an ELISA plate reader (RT-2100C, Rayto, Shenzhen, China) at 630 nm. Control wells containing only broth were included to verify sterility and prevent nonspecific media binding. To account for background absorbance, OD readings from sterile medium, fixative, and dye were averaged and subtracted from all test measurements. All tests were conducted in duplicate. The tissue culture 96-well microtiter plates (Sarstedt, Germany) were prepared by dispensing 100 µL of nutrient broth (i.e., Mueller Hinton broth) into each well. From the stock solutions of tested PCH-1 and PCH-2 (at a concentration of 5.4 µmol/L), 100 µL was added to the first row of the microtiter plate. Twofold serial dilutions were then performed, followed by the addition of 10 µL of bacterial suspension to each well. The turbidity of the bacterial suspension was 0.5 McFarland for Gram-negative bacteria and 1.0 McFarland for Gram-positive bacteria. The microtiter plates prepared in this way were incubated at 37 °C for 48 h. The remaining steps of the experiment were carried out as outlined below. […] Only broth or broth with tested PCH-1 and PCH-2 served as controls to check sterility and nonspecific binding of media. To compensate for background absorbance, OD readings from sterile medium, extracts, fixative, and dye were averaged and subtracted from all test values. All tests were performed in duplicate.

[3] = Staphylococcus aureus, ATCC25923, S. aureus ATCC 25923, 48 h, read-out: BIC50

Compound	MMC (B. subtilis (isolate)) [mM]	MIC (B. subtilis (isolate)) [µM]	MMC (B. subtilis ATCC 6633) [mM]	MIC (B. subtilis ATCC 6633) [µM]	MMC (K. pneumoniae) [mM]	MIC (K. pneumoniae) [µM]	MMC (P. mirabilis ATCC 12453 [1]) [mM]	MIC (P. mirabilis ATCC 12453 [1]) [µM]	MMC (P. aeruginosa ATCC 27853) [mM]	MIC (P. aeruginosa ATCC 27853) [µM]	MMC (C. albicans ATCC 10231) [mM]	MIC (C. albicans ATCC 10231) [µM]	BIC90 (S. aureus ATCC 25923)	IC50 (S. aureus ATCC 25923; [3]) [µM]	BIC90 (P. mirabilis ATCC 12453 [2])	IC50 (P. mirabilis ATCC 12453 [2]) [µM]	IC50 (S. aureus ATCC 25923; ATCC25923, Staphylococcus aureus ATCC 25923, read-out: BIC50) [µg/mL]
C/C(NNC(=O)c1ccc(O)c(O)c1O)=C1\C(=O)Oc2ccccc2C1=O [PCH-1, (E)-N′-(1-(2,4-dioxochroman-3-ylidene)ethyl)-2,3,4-trihydroxybenzohydrazide]	1.35	1350 (≈ 500 µg/mL)	2.70	2700 (≈ 1000 µg/mL)	0.34	170 (≈ 63 µg/mL)	0.17	80 (≈ 29.6 µg/mL)	0.34	340 (≈ 126 µg/mL)	0.34	170 (≈ 63 µg/mL)	˃2.70 mM	> 2700	˃2.70 mM	> 2700	
C/C(NNC(=O)c1cc(O)c(O)c(O)c1)=C1\C(=O)Oc2ccccc2C1=O [PCH-2, (E)-N′-(1-(2,4-dioxochroman-3-ylidene)ethyl)-3,4,5-trihydroxybenzohydrazide]	1.35	1350 (≈ 500 µg/mL)	0.34	340 (≈ 126 µg/mL)	0.34	170 (≈ 63 µg/mL)	0.17	80 (≈ 29.6 µg/mL)	0.67	340 (≈ 126 µg/mL)	1.35	170 (≈ 63 µg/mL)	˃2.70 mM	1020	˃2.70 mM	2150	378
